{"source": "patent US5474898A", "about": "“Octopamine receptor” (The United States of America as represented by the …, priority 1994, dated 1995)", "key": {"[1]": {"biological_target": "T1, Drosophila octopamine receptor (Drosophila melanogaster, UniProt P22270)", "T1 construct": "membranes or whole cells", "T1 sequence (P22270 27-601)": "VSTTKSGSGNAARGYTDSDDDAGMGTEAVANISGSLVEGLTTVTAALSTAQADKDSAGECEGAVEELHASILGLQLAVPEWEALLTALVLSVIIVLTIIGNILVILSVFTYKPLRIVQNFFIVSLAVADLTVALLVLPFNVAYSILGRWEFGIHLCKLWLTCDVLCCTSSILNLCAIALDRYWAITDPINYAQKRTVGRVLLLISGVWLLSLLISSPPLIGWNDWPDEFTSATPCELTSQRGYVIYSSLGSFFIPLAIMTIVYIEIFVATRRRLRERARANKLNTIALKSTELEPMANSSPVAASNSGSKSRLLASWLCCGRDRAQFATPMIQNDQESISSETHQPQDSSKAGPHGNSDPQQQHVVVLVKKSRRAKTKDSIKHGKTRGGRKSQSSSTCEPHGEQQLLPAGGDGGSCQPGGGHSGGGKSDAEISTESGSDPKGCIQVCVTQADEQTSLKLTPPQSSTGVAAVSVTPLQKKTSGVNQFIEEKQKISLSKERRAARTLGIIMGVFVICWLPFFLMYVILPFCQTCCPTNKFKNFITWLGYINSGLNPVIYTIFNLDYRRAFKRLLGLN", "test": "[3H]yohimbine competition displacement binding to membranes of transfected CHO-K1 cells", "excerpt": "(§1) In a binding assay provided herein, octopamine receptor genes isolated from a specific DNA library are inserted into a plasmid expression vector and used to transfect a Chinese hamster […] cell called CHO-K1 cells. These cells stably integrate the foreign DNA into the genome. Cells that express the insect octopamine receptor and process receptor into the mammalian cell membrane are cloned, expanded and frozen down for further use as membrane preparations in a ligand binding assay. […] After the incubations are terminated, the reaction mixture containing labeled ligand bound to receptor membranes is calculated by measuring label.\n(§2) Cell membranes from transfected cells were prepared as previously described (F.-Z. Chung et al., J. Bol. Chem. 263:4052-4055 (1988); C. M. Fraser et al., Proc. Natl. Acad. Sci. USA 85:5478-5482 (1988), C. M. Fraser et al., J. Biol. Chem. 264:11754-11761 (1989), C. M. Fraser et al., Proc. Nat;. Acad. Sci. USA 85:5478-5482 (1989)).\nMembrane bound octopamine receptors (20 μg of protein)\nconcentrations of the indicated agonists (0.1 μM to 2 mM) or\nantagonists (10 nM to 200 μM). Incubations were performed at 37.degree\nC. for 20 min in a final volume of 250 μl and terminated by filtration\nover Whatman GF/C glass fiber filters. Experiments were repeated three\ntimes in triplicate, and the average inhibition constants (± SD) were\ncaluclated using the LIGAND program of Munson and Rodbard (1980)."}, "[2]": {"biological_target": "T1, Drosophila octopamine receptor", "test": "Attenuation of forskolin-stimulated cAMP in CHO-K1 cells expressing the Drosophila octopamine receptor", "type": "cell-based", "procedure": "Transfected cells (3×10^5 cells per dish) were washed once with PBS and incubated in PBS containing 1 mM 3-isobutyl-1-methylxanthine (Sigma) at 37° C. for 20 min. Agonists, at the indicated final concentrations, were added to the cultures along with 10 μM forskolin (Sigma), and cultures were incubated at 37° C. for an additional 20 min. Incubations were terminated by the addition of 6% trichloroacetic acid. Trichloroacetic acid extracts were extracted four times with distilled water-saturated ether, and cMAP concentrations were determined using a cAMP radioimmunoassay kit (New England Nuclear). Data are expressed as percent forskolin-stimulated cAMP production. In the indicated experiments, cell cultures were incubated with Bordetella pertussis islet activating protein (200 ng/ml; list biological lab) at 37° C. for 18 hr in normal culture medium prior to the assay of cAMP. Solid and open squares represent data obtained with octopamine in transfected and control cells, respectively. Solid circles represent data with epinephrine in transfected cells. […] Data represent the average ±SEM of at least three separate experiments performed in duplicate.\n(§3) Another aspect of the present invention relates to another drug screening method that identifies new compounds with biogenic amine (agonists) or antagonist activity for biogenic receptors by measuring adenylate cyclase concentrations in transfected CHO-K1 cells expressing octopamine receptors. In one embodiment, potential drugs are tested for their ability to attenuate forskolin-stimulated adenylate cyclase activity. Forskolin is added to control or octopamine receptor transfected CHO-K1 cells that stimulates increased intracellular cAMP levels in transfected cells over basal CHO-K1 levels. In the presence of forskolin, known concentrations of octopamine are added and the attenuation of forskolin stimulated cyclase AMP is calculated. A potential antagonist is determined by the competitive reversal of octopamine mediated attenuation of forskolin stimulated cyclic AMP accumulation when the drug is added to the assayed transfected cells.\nBecause of the pharmacological and structural similarities of the Drosophila receptor to mammalian […] receptors, the ability of octopamine to attenuate forskolin-stimulated adenylate cyclase activity was tested."}, "control CHO-K1 cells": {"tested_on": "control CHO-K1 cells", "test": "Attenuation of forskolin-stimulated cAMP in control CHO-K1 cells", "type": "cell-based, Chinese hamster", "conditions": "10 μM forskolin (FIG. 4)", "procedure": "(§4) Transfected cells (3×10^5 cells per dish) were washed once with PBS and incubated in PBS containing 1 mM 3-isobutyl-1-methylxanthine (Sigma) at 37° C. for 20 min. Agonists, at the indicated final concentrations, were added to the cultures along with 10 μM forskolin (Sigma), and cultures were incubated at 37° C. for an additional 20 min. Incubations were terminated by the addition of 6% trichloroacetic acid. Trichloroacetic acid extracts were extracted four times with distilled water-saturated ether, and cMAP concentrations were determined using a cAMP radioimmunoassay kit (New England Nuclear). Data are expressed as percent forskolin-stimulated cAMP production. […]\nas §3, with “In one embodiment, potential drugs are tested for their ability to attenuate forskolin-stimulated adenylate cyclase activity. Forskolin is added to control or octopamine receptor transfected CHO-K1 cells that stimulates increased intracellular cAMP levels in transfected cells over basal CHO-K1 levels.” left out, “cells. […]” for “cells.”"}, "Octampamine1": {"tested_on": "Octampamine1", "conditions": "locust neuromuscular preparation; data from Evans (1981/1982); cited from earlier work"}, "Octapamine2": {"tested_on": "Octapamine2", "conditions": "locust neuromuscular preparation; data from Evans (1981/1982); cited from earlier work"}, "Octopamine20": {"tested_on": "Octopamine20", "conditions": "locust neuromuscular preparation; data from Evans (1981/1982); cited from earlier work"}, "[3]": {"biological_target": "T1, Drosophila octopamine receptor", "test": "[3H]yohimbine saturation binding to membranes of transfected CHO-K1 cells", "excerpt": "as §1, §2"}, "[4]": {"tested_on": "control, untransfected CHO-K1 cells", "test": "[3H]yohimbine binding to membranes of control, untransfected CHO-K1 cells", "design": "species or system Chinese hamster", "conditions": "untransfected CHO-K1 cell membranes", "excerpt": "as §1, §2"}, "adenylate cyclase": {"tested_on": "adenylate cyclase", "test": "Forskolin stimulation of intracellular cAMP in control or transfected CHO-K1 cells", "conditions": "Cricetulus griseus, CHO-K1, 20 min, read-out: increase in intracellular cAMP levels over basal values", "procedure": "as §4\nas §3, with “In one embodiment, potential drugs are tested for their ability to attenuate forskolin-stimulated adenylate cyclase activity. Forskolin is added to control or octopamine receptor transfected CHO-K1 cells that stimulates increased intracellular cAMP levels in transfected cells over basal CHO-K1 levels.” left out, “cells. […]” for “cells.”"}, "[5]": {"conditions": "displacement of 6 nM [3H]yohimbine, 37° C., 20 min, average ± SD, three times in triplicate, read-out: K1"}}, "note": "Read-outs that look alike come from different tables or passages of the source."}
{"smiles": "NCC(O)c1ccc(O)cc1", "note": "(racemic) [Octopamine(±), Octopamine]", "values": [{"measurement": "Ki", "setting": "[1]; read-out: Ki", "result": "29 ± 6", "unit": "µM"}, {"measurement": "activity at 100 µM", "setting": "[2]; CHO-K1, 20 min, 100 μM octopamine plus 10 μM forskolin, transfected cells, read-out: cAMP levels, % of those seen with forskolin alone", "result": 46, "unit": "%"}, {"measurement": "ability to attenuate forskolin-stimulated cAMP levels after Bordetella pertussis islet activating protein", "setting": "[2]; transfected cells pretreated with pertussis toxin 200 ng/ml, 18 hr", "result": "abolished"}, {"measurement": "attenuation of forskolin-stimulated cAMP levels", "setting": "[2]; transfected cells, 10 μM forskolin (FIG. 4)", "result": "dose-dependent attenuation of forskolin-stimulated cAMP levels"}, {"measurement": "attenuation of forskolin-stimulated cAMP levels", "setting": "control CHO-K1 cells", "result": "not observed in control cells"}]}
{"smiles": "CNCC(O)c1ccc(O)cc1", "note": "(racemic) [Synephrine(±), Synephrine]", "values": [{"measurement": "Ki", "setting": "[1]", "result": "10.8 ± 2.5", "unit": "µM"}]}
{"smiles": "CN(C)CCCN1c2ccccc2Sc2ccc(Cl)cc21", "note": "[Chlorpromazine]", "values": [{"measurement": "Ki", "setting": "[1]", "result": "0.18 ± 0.06", "unit": "µM"}, {"measurement": "EC50", "setting": "Octampamine1", "result": 0.026, "unit": "µM"}]}
{"smiles": "Clc1cccc(Cl)c1N=C1NCCN1", "note": "[Clonidine]", "values": [{"measurement": "Ki", "setting": "[1]", "result": "21 ± 7", "unit": "µM"}, {"measurement": "EC50", "setting": "Octampamine1", "result": 0.00068, "unit": "µM"}, {"measurement": "EC50", "setting": "Octapamine2", "result": 6.4, "unit": "µM"}]}
{"smiles": "NCCc1ccc(O)c(O)c1", "note": "[Dopamine]", "values": [{"measurement": "Ki", "setting": "[1]; [5]", "result": "> 1000", "unit": "µM"}, {"measurement": "Ki", "setting": "[1]; read-out: Ki", "result": "> 1000", "unit": "µM"}]}
{"smiles": "CNC[C@H](O)c1ccc(O)c(O)c1", "note": "[Epinephrine(-), Epinephrine]", "values": [{"measurement": "Ki", "setting": "[1]", "result": "139 ± 41", "unit": "µM"}, {"measurement": "attenuation of forskolin-stimulated cAMP levels", "setting": "[2]", "result": "no effect on forskolin-stimulated cAMP levels"}, {"measurement": "attenuation of forskolin-stimulated cAMP levels", "setting": "control CHO-K1 cells", "result": "no effect on forskolin-stimulated cAMP levels"}]}
{"smiles": "CC(C)NCC(O)c1ccc(O)c(O)c1", "note": "(stereo not drawn) [Isoproterenol(-), Isoproterenol]", "values": [{"measurement": "Ki", "setting": "[1]; [5]", "result": "> 1000", "unit": "µM"}, {"measurement": "Ki", "setting": "[1]; read-out: Ki", "result": "> 1000", "unit": "µM"}]}
{"smiles": "CCN(CC)CCNC(=O)c1cc(Cl)c(N)cc1OC", "note": "[Metoclopramide]", "values": [{"measurement": "Ki", "setting": "[1]; read-out: K1", "result": "4.6 ± 1.4", "unit": "µM"}, {"measurement": "EC50, Octampamine1", "setting": "Octampamine1", "result": "No effect-10^-6"}, {"measurement": "EC50", "setting": "Octapamine2", "result": 1, "unit": "µM"}, {"measurement": "EC50", "setting": "Octopamine20", "result": 9.5, "unit": "µM"}]}
{"smiles": "Cc1ccc(N(CC2=NCCN2)c2cccc(O)c2)cc1", "note": "[Phentolamine]", "values": [{"measurement": "Ki", "setting": "[1]; read-out: K1", "result": "2.2 ± 0.7", "unit": "µM"}, {"measurement": "EC50", "setting": "Octampamine1", "result": 0.0019, "unit": "µM"}]}
{"smiles": "NCCc1c[nH]c2ccc(O)cc12", "note": "[Serotonin]", "values": [{"measurement": "Ki", "setting": "[1]", "result": "75 ± 18", "unit": "µM"}]}
{"smiles": "COC(=O)[C@@H]1[C@H]2C[C@H]3c4[nH]c5ccccc5c4CCN3C[C@@H]2CC[C@@H]1O", "note": "[Yohimbine]", "values": [{"measurement": "antagonism of octopamine-mediated attenuation of forskolin stimulated cAMP accumulation", "setting": "[2]; transfected cells, 10 μM yohimbine (FIG. 4)", "result": "competitively antagonized"}, {"measurement": "EC50", "setting": "Octampamine1", "result": 0.28, "unit": "µM"}]}
{"smiles": "COC(=O)[C@@H]1[C@H]2C[C@H]3c4[nH]c5ccccc5c4CCN3C[C@@H]2CC[C@@H]1O", "note": "[[^3 H]yohimbine]", "values": [{"measurement": "Kd", "setting": "[3]", "result": 0.0062, "unit": "µM"}, {"measurement": "Bmax", "setting": "[3]; transfected cell membranes", "result": "1.75 pmol of receptor per mg of membrane protein"}, {"measurement": "specific radioligand binding", "setting": "[4]", "result": "No specific radioligand binding was observed"}]}
{"smiles": "C=C[C@@]1(C)CC(=O)[C@]2(O)[C@@]3(C)[C@@H](O)CCC(C)(C)[C@@H]3[C@H](O)[C@H](OC(C)=O)[C@@]2(C)O1", "note": "[forskolin]", "values": [{"measurement": "fold induction at 10 µM", "setting": "adenylate cyclase", "result": 35}]}
